“Also recorded” adds a separate entry of the source. Where a name gives a salt, the structure may show the parent alone. Read-outs that look alike come from different tables or passages of the source.
What was measured:
[1] = cited from earlier work
[2] = Ex vivo exposure of coated ureteral stent to a pig ureter
Excerpt: (§1) An approximately 0.6% solution of bupivacaine having a tertiary amine in the non-ionic form (formula (2a) above) in dichloromethane was loaded into a syringe mounted onto a syringe pump and connected to a tube that carried the solution to an ultrasonic nozzle (Model 06-05108—Sono-Tek Co., Poughkeepsie, N.Y. 12547.) A nozzle was 6 mm diameter, 11 mm long and used with a nominal frequency of 120 kHz. Air was purged from the solution line and the spray nozzle primed with the solution. The coating chamber was purged with nitrogen to attain an oxygen concentration below 100 ppm. The solution was sprayed onto ureteral stent substrates 20 to 280 mm long (polyurethane double pigtail soflex ureteral stent, Cook Incorporated (Bloomington, Ind.)). A smooth, uniform coating was observed. Control stents were coated with the same concentration of Bupivacaine.HCl using the above coating method.
(§2) FIGS. 4-7 depict photomicrographs of the coatings showing the uniformity and tenacity of the non-ionic coatings, in contrast to the water-soluble ionic coatings. […] FIG. 5 depicts a relatively rough, crystalline coating 91 of Bupivacaine.HCl on a ureteral stent 90, on the left, and the same stent after a one-minute ex vivo exposure to a pig ureter.
(§3) FIG. 7 then depicts the same type of stent 110 with a coating 114 of the non-ionic form of bupivacaine after 24 hours in an ex vivo test with a pig ureter.

[3] = Table 1, anesthetics having protonated and unprotonated forms; cited from earlier work
[4] = Elution of bupivacaine from spray-coated ureteral stents in aqueous buffers of different pH; format: physicochemical
Excerpt: as §1
The stents were placed in solutions at different pH values to test the elution of bupivacaine over time. […] Acetic acid/sodium acetate was used for the pH 4.5 buffer, 0.1 M phosphate-buffered solution (PBS) for the pH 7.0 buffer, and sodium carbonate for the pH 9.5 buffer.

[5] = Exposure of coated ureteral stent to water / aqueous environment (photomicrographs of coating); format: physicochemical
Excerpt: as §1, §2, §3

Structure (SMILES)	solubility ([1]; base or non-ionic form)	solubility in water (words) [1]	solubility in water (words) ([1]; listed as Bupivacaine)	state of stent coating after ex vivo test with pig ureter ([2]; 24 hours ex vivo (FIG. 7))	pKa [3]	period over which release from ureteral stent occurs ([4]; coated polyurethane ureteral stent, solutions of pH 4.5, 7.0 and 9.5)	dependence of release rate on pH of the eluting solution ([4]; pH 4.5, 7.0, 9.5)	state of stent coating after exposure to aqueous environment ([5]; aqueous environment for several days (FIG. 6))	solubility in water (words) ([1]; hydrochloride)	solubility in water (words) ([1]; listed as bupivacaine hydrochloride, hydrochloride)	state of stent coating after ex vivo exposure to pig ureter ([2]; one-minute ex vivo exposure (FIG. 5))	time of release/elution from coated stent ([4]; control stents coated with ionic form, aqueous solutions, same conditions, hydrochloride)	state of stent coating after dipping in water ([5]; dipped in water for one minute (FIG. 4))
CCCCN1CCCCC1C(=O)Nc1c(C)cccc1C (centres unmarked) [bupivacaine]	about 0.2 mg/mL	only very slightly soluble in water	sparingly soluble in water	most of the non-ionic form of the bupivacaine coating remains on the stent	8.09	about 12 days	approximately the same rate	virtually no effect on the coating	–	–	–	–	–
CCCCN1CCCCC1C(=O)Nc1c(C)cccc1C (centres unmarked) [Bupivacaine.HCl, 1-butyl-N-(2,6-dimethylphenyl)-2-piperidinecarboxamide hydrochloride]	–	–	–	–	–	–	–	–	water-soluble	soluble in water	Most of the coating 92 has been dissolved	within a matter of minutes; also recorded: eluted fully within minutes	coating is substantially dissolved
CCCN1CCCC[C@H]1C(=O)Nc1c(C)cccc1C [ropivacaine]	–	–	–	–	8.16	–	–	–	–	–	–	–	–
